According to publication PMC11024961, “Effects of Chrysin and Chrysin-7-sulfate on Ochratoxin A-Albumin Interactions and on the Plasma and Kidney Levels of the Mycotoxin in Rats” (ACS Omega, 2024):
Several values for one entry are separate records, joined by “and”; a condition that tells them apart may be missing. Identical values can stand only once.

Assays:
[1] = system: HSA; parameters: method as in PMID 30562928; conditions: cited from earlier work
[2] = biological target: T1, human serum albumin (HSA) (Homo sapiens, UniProt P02768); test: Fluorescence emission intensity of OTA-HSA with ligands; assay type: binding; conditions: ligand 0–30 μM; OTA 1.0 μM, HSA 1.5 μM; λex 393 nm, λem 446 nm; inner-filter corrected
T1 construct: purchased Merck (Darmstadt, Germany) A1653
Experimental: (§1) Fluorescence spectroscopic studies were carried out using a Hitachi F-4500 spectrofluorometer (Tokyo, Japan). Fluorescence emission spectra were collected, and fluorescence anisotropy values were determined in phosphate-buffered saline (PBS, pH 7.4) at room temperature, using 393 and 446 nm as excitation and emission wavelengths, respectively. […] Absorption spectra of ligand molecules were also recorded employing a Jasco V730 UV–vis spectrophotometer (Tokyo, Japan), after which their inner-filter effects were corrected using the following equation:[28],[29] [drawing 1] 1 where Icor and Iobs are the corrected and the observed fluorescence emission intensities at 446 nm, respectively, while Aex and Aem are the absorbance values of the competitor ligand molecules at 393 and 446 nm, respectively.

[3] = Plasma and kidney levels of OTA after single i.v. OTA with or without C7S; assay type: in vivo, Wistar rats
Experimental: (§2) Male Wistar rats were obtained from Toxi-Coop Ltd. (Budapest, Hungary). The animals (weighing 150–250 g) were kept at 24 ± 2 °C, at 50–60% relative air humidity, and on a 12 h light/dark cycle in the Laboratory Animal House of the Department of Pharmacology and Pharmacotherapy (Medical School, University of Pécs) under standard pathogen-free conditions and were provided with standard rat chow and tap water ad libitum.
(§3) Stock solution of OTA (10 mg/mL) was prepared in 96 v/v% ethanol (Reanal, Budapest, Hungary). C7S (90 mg/mL) were dissolved in dimethyl sulfoxide (Fluka, Charlotte, NC, US). In the i.v. experiments, the final concentration of dimethyl sulfoxide was uniformly 1.67 v/v % in each solution administered. In the per os experiments, CHR was suspended in physiological saline by using a mortar and pestle.
In the first experiment, rats were weighed and then treated intravenously through the tail vein with OTA (50 μg/kg, 2 mL/kg, in physiological saline) without or with C7S (1 or 3 mg/kg). Before and after the treatment, rats consumed feed and water ad libitum. Blood samples (approximately 100–150 μL) were collected from the tail vein into heparinized tubes after 2 and 6 h. After 24 h, blood (cardiac puncture) and kidney samples were collected. Plasma and tissue samples were stored at −80 °C until analysis.
Sample preparation was performed as it has been previously reported.[48] Briefly, after centrifugation, rat plasma was diluted with a 2-fold volume of acetonitrile, and then samples were vortexed, sonicated for 3 min, and centrifuged for 5 min at 14,000g and 4 °C. Thereafter, a 2-fold volume of HPLC eluent (see in Section 2.6) was added to the supernatant. These samples were directly analyzed by HPLC-FLD (see Section 2.6).
After weighing, kidney samples were homogenized with a 2-fold amount of water employing a Potter–Elvehjem tissue homogenizer. Then, 100 μL of homogenate was diluted with 2-fold volume of acetonitrile, after which these samples were treated the same way as plasma samples (vortexing, sonication, centrifugation, 2-fold dilution with HPLC eluent, and then HPLC-FLD analysis).
OTA was quantified with the previously reported HPLC-FLD method,[48] employing an integrated HPLC system (Jasco, Tokyo, Japan): autosampler (AS-4050), binary pump (PU-4180), fluorescence detector (FP-920), and ChromNAV2 software. Briefly, the isocratic elution was performed with 1.0 mL/min flow rate at room temperature, using sodium borate buffer (0.01 M, pH 10.0) and ACN (87:13 v/v%) as the mobile phase. […] The fluorescence detection of the mycotoxin was carried out at 383 and 446 nm excitation and emission wavelengths, respectively.

[4] = biological target: T1, human serum albumin (HSA); test: biochemical; assay type: binding; conditions: for unbound fraction of OTA with HSA: OTA 1.0 μM, HSA 1.5 μM, PBS pH 7.4
Experimental: (§4) Albumin (with the bound ligand molecules) was sedimented with ultracentrifugation, employing the previously described method.[26],[29],[31] […] These solutions (900 μL) were centrifuged for 16 h at 170,000g and 20 °C, using an Optima MAX-XP tabletop ultracentrifuge (with an MLA-130 fixed-angle rotor; Beckman Coulter, Brea, CA, US). After 200 μL of the protein-free supernatant was carefully aspirated, the free unbound concentration of OTA was directly analyzed from the supernatant by HPLC-FLD (details in Section 2.6). Association constants (Ka) of OTA-HSA and OTA-RSA complexes were calculated based on the following equation, assuming 1:1 stoichiometry of the complex formation:[29],[32] [drawing 3] 3 where [OTA] is the concentration of the unbound free mycotoxin, [SA] is the concentration of the unbound free serum albumin, while [OTA-SA] is the molar concentration of the mycotoxin-albumin complex in the solution.
(§5) OTA was quantified with the previously reported HPLC-FLD method,[48] employing an integrated HPLC system (Jasco, Tokyo, Japan): autosampler (AS-4050), binary pump (PU-4180), fluorescence detector (FP-920), and ChromNAV2 software. Briefly, the isocratic elution was performed with 1.0 mL/min flow rate at room temperature, using sodium borate buffer (0.01 M, pH 10.0) and ACN (87:13 v/v%) as the mobile phase. Samples (20 μL) were driven through a SecurityGuard precolumn (C18, 4.0 × 3.0 mm; Phenomenex, Torrance, CA, US) linked to a Kinetex EVO (C18, 150 × 4.6 mm, 5 μm; Phenomenex) analytical column. The fluorescence detection of the mycotoxin was carried out at 383 and 446 nm excitation and emission wavelengths, respectively.

[5] = biological target: T2, rat serum albumin (RSA) (Rattus norvegicus, UniProt P02770); test: biochemical; assay type: binding
T2 construct: purchased Merck (Darmstadt, Germany) A6272
Experimental: as §4, §5

[6] = biological target: T2, rat serum albumin (RSA); test: Fluorescence emission intensity of OTA-RSA with ligands; assay type: binding; conditions: ligand 0–30 μM; OTA 1.0 μM, RSA 1.5 μM; λex 393 nm, λem 446 nm; inner-filter corrected
Experimental: as §1

[7] = biological target: T1, human serum albumin (HSA); test: Fluorescence anisotropy of OTA-HSA with ligands; assay type: binding
Experimental: as §1
(§6) Fluorescence anisotropy (r) values were calculated employing the following equation:[10],[30] [drawing 2] 2 where IVV is the emission intensity measured in vertical positions of the polarizers at both the presample and the postsample sites, IVH is the emission intensity measured in vertical position of the polarizer at presample site and in horizontal position of the polarizer at the postsample site, while G is the instrumental factor (showing the preference of the emission optics for the horizontal orientation to the vertical orientation).

[8] = Plasma and kidney levels of OTA after repeated peroral OTA with or without CHR; assay type: in vivo, Wistar rats; conditions: CHR 1 or 3 mg/kg/day per os with OTA 100 μg/kg/day, three days; sampled on the fourth day
Experimental: as §2
as §3, with “pestle. […]” for “pestle.”
Sample preparation was performed as it has been previously reported.[48] […] These samples were directly analyzed by HPLC-FLD (see Section 2.6). […]
OTA was quantified with the previously reported HPLC-FLD method,[48] employing an integrated HPLC system (Jasco, Tokyo, Japan): autosampler (AS-4050), binary pump (PU-4180), fluorescence detector (FP-920), and ChromNAV2 software. […] The fluorescence detection of the mycotoxin was carried out at 383 and 446 nm excitation and emission wavelengths, respectively.

[9] = biological target: T2, rat serum albumin (RSA); test: Fluorescence anisotropy of OTA-RSA with ligands; assay type: binding; conditions: ligand 0–30 μM; OTA 1.0 μM, RSA 1.5 μM
Experimental: as §1, §6

[10] = biological target: T2, rat serum albumin (RSA); parameters: method as in doi:10.1016/j.jlumin.2013.08.059; conditions: cited from earlier work
[11] = parameters: method as in PMID 37649524; conditions: cited from earlier work
[12] = system: HSA; conditions: cited from earlier work
[13] = system: Bovine serum albumin (BSA); parameters: method as in doi:10.1016/j.jlumin.2013.08.059; conditions: cited from earlier work
[14] = C7S 3 mg/kg i.v. with OTA 50 μg/kg i.v., 24 h
[15] = ligand 0–30 μM, OTA 1.0 μM, HSA 1.5 μM

T1 sequence (P02768 25-609): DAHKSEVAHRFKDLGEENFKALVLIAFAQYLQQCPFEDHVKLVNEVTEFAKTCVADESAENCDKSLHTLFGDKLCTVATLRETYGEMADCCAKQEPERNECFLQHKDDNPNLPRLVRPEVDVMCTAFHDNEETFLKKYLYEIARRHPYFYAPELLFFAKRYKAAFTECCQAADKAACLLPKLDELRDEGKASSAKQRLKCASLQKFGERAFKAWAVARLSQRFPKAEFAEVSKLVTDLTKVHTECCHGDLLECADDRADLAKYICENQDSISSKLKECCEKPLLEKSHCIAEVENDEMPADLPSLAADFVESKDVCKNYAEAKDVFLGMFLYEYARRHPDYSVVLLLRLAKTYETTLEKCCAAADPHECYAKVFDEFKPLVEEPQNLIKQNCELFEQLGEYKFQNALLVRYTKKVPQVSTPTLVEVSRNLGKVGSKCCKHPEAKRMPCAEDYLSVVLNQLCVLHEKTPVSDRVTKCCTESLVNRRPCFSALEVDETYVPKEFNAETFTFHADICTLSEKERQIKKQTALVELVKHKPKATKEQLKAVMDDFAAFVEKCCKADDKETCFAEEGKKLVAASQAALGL
T2 sequence (P02770 25-608): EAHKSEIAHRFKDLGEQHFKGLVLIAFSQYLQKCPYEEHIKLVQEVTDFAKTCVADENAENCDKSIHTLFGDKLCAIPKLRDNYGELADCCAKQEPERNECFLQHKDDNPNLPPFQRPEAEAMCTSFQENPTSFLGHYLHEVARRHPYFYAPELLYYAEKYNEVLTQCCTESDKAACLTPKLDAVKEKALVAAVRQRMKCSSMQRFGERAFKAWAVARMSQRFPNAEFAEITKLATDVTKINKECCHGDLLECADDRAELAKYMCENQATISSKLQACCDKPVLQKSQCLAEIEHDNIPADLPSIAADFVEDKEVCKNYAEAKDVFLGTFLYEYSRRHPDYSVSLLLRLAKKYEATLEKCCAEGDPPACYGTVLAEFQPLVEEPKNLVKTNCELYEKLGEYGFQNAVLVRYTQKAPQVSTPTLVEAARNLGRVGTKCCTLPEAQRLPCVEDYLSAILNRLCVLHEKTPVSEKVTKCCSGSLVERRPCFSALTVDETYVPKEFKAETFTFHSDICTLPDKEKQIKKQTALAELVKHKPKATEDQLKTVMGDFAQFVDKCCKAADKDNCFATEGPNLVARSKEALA

Row | Molecule | effect on emission signal of OTA-HSA complex, in words [2] | displacement of OTA from HSA (free fraction), in words ([4]; ligand 0–30 μM, overall) | displacement of OTA from RSA (free fraction), in words ([5]; ligand 0–30 μM, overall) | effect on emission signal of OTA-RSA complex, in words [6] | effect on fluorescence anisotropy of OTA-HSA, in words [7, 15] | effect on fluorescence anisotropy of OTA-RSA, in words [9] | displacement of OTA from HSA (free fraction), in words ([4]; ligand 30 μM) | effect on fluorescence anisotropy of OTA-HSA, in words ([7]; ligand 15 μM) | further results
1 | O=c1cc(-c2ccccc2)oc2cc(OS(=O)(=O)O)cc(O)c12 [C7S, chrysin-7-sulfate] | strong decreases | strongly interfered | strongly disrupted | strong decreases | marked reduction | – | – | – | affinity to HSA, fold higher than CHR [1]: 3 fold; effect on plasma levels of OTA, in words ([3]; C7S 1 mg/kg i.v. with OTA 50 μg/kg i.v., 2, 6 and 24 h): did not induce significant changes; effect on kidney levels of OTA, in words ([3]; C7S 1 mg/kg i.v. with OTA 50 μg/kg i.v., 24 h): did not affect; effect on kidney levels of OTA, in words [3, 14]: slightly decreased; effect on plasma levels of OTA, in words [3, 14]: not statistically significant; unbound fraction of OTA with HSA ([4]; ligand 15 μM): 55%; fold lower Ka of OTA-HSA in the presence of the ligand ([4]; ligand 30 μM): approximately 100 fold; unbound fraction of OTA with HSA ([4]; ligand 30 μM): 75%; displacement of OTA from RSA (free fraction), in words ([5]; ligand 30 μM): almost completely displaced; fold lower Ka of OTA-RSA in the presence of the ligand ([5]; ligand 30 μM): approximately 100 fold
2 | O=c1cc(-c2ccccc2)oc2cc(O)cc(O)c12 [CHR, Chrysin] | strong decreases | – | weak displacing effects | strong decreases | only slightly decreased | only slightly decreased | only minor displacement | – | effect on kidney levels of OTA, in words [8]: did not cause statistically significant changes; effect on plasma levels of OTA, in words [8]: did not cause statistically significant changes
3 | C[C@@H]1Cc2c(Cl)cc(C(=O)N[C@@H](Cc3ccccc3)C(=O)O)c(O)c2C(=O)O1 [OTA, Ochratoxin A] | – | – | – | – | – | – | – | – | fold weaker complex with RSA compared to HSA [10]: approximately 10 fold; free unbound fraction in the human circulation [11]: 0.02%; plasma elimination half-life in man [11]: approximately 35 days; association/binding constant of the OTA-HSA complex [12]: exceeds 10^7 L/mol; binding constant of OTA-BSA complex [13]: > 10^6 L/mol; fold weaker complex with BSA compared to HSA [13]: approximately 10 fold; Kd [4]: 40 nM; Kd ([5]; Ka of OTA-RSA complex, no competitor, OTA 1.0 μM, RSA up to 1.5 μM, PBS pH 7.4, 1:1 stoichiometry): 340 nM and 345 nM
4 | C=CC1=C(C)/C(=C/c2[nH]c(Cc3[nH]c(/C=C4\NC(=O)C(C)=C4C=C)c(C)c3CCC(=O)O)c(CCC(=O)O)c2C)NC1=O [bilirubin] | remarkable decreases | – | moderate to strong displacement | remarkable decreases | smaller, gradual decreases | smaller, gradual decreases | only a minor elevation | marked decreases | displacement of OTA from HSA (free fraction), in words ([4]; ligand 3 and 15 μM): no significant increase
5 | O=C(CCCCC(=O)Nc1c(I)cc(I)c(C(=O)O)c1I)Nc1c(I)cc(I)c(C(=O)O)c1I [iodipamide] | only slightly modified | – | weak displacing effects | only slightly modified | only slightly decreased | only slightly decreased | only minor displacement | – | –
6 | hemin | remarkable decreases | better displacing effect than bilirubin | – | remarkable decreases | smaller, gradual decreases | smaller, gradual decreases | – | marked decreases | displacement of OTA from RSA (free fraction), in words ([5]; ligand 15 and 30 μM): weak to moderate impacts
